Here are results for 1 compound from US20240148701A1, “WOULD HEALING METHODS” (The University of Sydney, priority 2021, published 2024).

The test system of experiment [1] is HUVECs. Description: Cell migration by scratch assay in HUVECs (CL 316,243). It counts as cell-based, human.
Experiment [2] deals with Nox 2. Nature of the experiment: Immunoblot of hind limb Nox 2 expression. Conditions: ischemic limb, non-diabetic mice, n=4, P>0.05. It counts as in vivo, mouse. As to the method:
Hind limb tissue including the gastrocnemius and adductor muscles were isolated and collected at 14 or 28 days. Tissues were separated and implanted in OCT or placed in cryovials and snap-frozen in liquid nitrogen or were fixed in 10% formalin for 24-hours and then moved to 70% ethanol for storage.
Gastrocnemius samples were stored at −80° C. and then mechanically homogenized in ice-cold lysis buffer containing 150 mmol/L NaCl, 200 mmol/L Tris-HCl (pH 8.0), 1% Triton X-100, 0.5% deoxycholic acid, 0.1% SDS, N-ethylmaleimide (25 mM) and protease inhibitors (cOmplete™ EDTA-free, Roche Diagnostics). 30 μg of protein lysate was denatured and run under reducing conditions on SDS-PAGE (Bolt™ pre-cast gels and reagents, Thermofisher Scientific, Australia) and transferred onto Immobilon polyvinylidene fluoride membrane (Merck Millipore, Australia). […] Membranes were detected using an Odyssey imaging platform (Licor, USA).
For orientation: A western blot detects proteins with antibodies after separation by electrophoresis.

Experiment [3] has as its system endothelial colony forming cells (ECFC). Nature of the experiment: Tubule formation in patient-derived endothelial colony forming cells. It counts as cell-based, human. As to the method:
(§1) Human umbilical vein endothelial cells (HUVECs; Lonza C2519AS, pooled source, Australia) were grown using standard cell culture conditions in endothelial cell growth medium (EGM Plus®, containing 2% fetal bovine serum, Lonza, Australia). All cells were regularly confirmed to be mycoplasma negative. Two different pooled source cell lines were used in experiments and all were used within passages 2-4. Human adult dermal microvascular endothelial cells were also obtained from Lonza (CC-2543, Lonza Australia) and cultured as above but using endothelial growth medium 2-MV bulletkit. Endothelial colony forming cells (ECFCs) were derived from the peripheral blood of participants in the BioHEART study. This registered study (ACTRN12618001322224) complies with the Declaration of Helsinki and the study protocol and design has been approved by the Northern Sydney Local Health District Human Research Ethics Committee (HREC/17/HAWKE/343). […]
(§2) Once they were ˜70% confluent, cells were re-suspended in diluted EGM Plus® (1:3) and plated on reduced-growth factor extracellular matrix (15 mg/ml, Cultrex, Trevigen, USA) at a density of 1.5×10^4 cells/cm^2. […] Cells were incubated in an EVOS FL Auto Imaging system for 16 hours and tubule formation recorded every hour. Optimal tube formation occurred at the 8-hour timepoint; tubule number at this point was quantified manually using NIH Image J software. […]

Experiment [4] has as its system human adult dermal microvascular endothelial cells (MVEC). Nature of the experiment: Tubule formation in human adult dermal microvascular endothelial cells. It counts as cell-based. Conditions: CL 316,243 100 ng/ml. As to the method: as §1, §2

SMILES strings stand for the structures. Bounds are passed on as bounds.

In the case of `C[C@H](Cc1ccc2c(c1)OC(C(=O)[O-])(C(=O)[O-])O2)NC[C@H](O)c1cccc(Cl)c1.[Na+].[Na+]` [CL 316,243], the “closure of denuded zone” value in experiment [1] (by 24 hours at the higher concentrations) was > 90%. Moreover, the “migration of HUVECs into the denuded zone” value in experiment [1] (scratch assay over 24 hours, 1-1000 ng/ml, vs vehicle control) is listed as “significantly increased migration”. For the same compound, in experiment [2], the “Nox 2 hind limb protein expression” value came to 1.04±0.46 fold change from vehicle. Further, in experiment [3] (ECFCs from patients with significant coronary artery disease, 100 ng/ml), the “angiogenesis (tubule formation) in ECFCs” value is “effectively stimulate angiogenesis”. Also, the “angiogenesis in ECFCs” value in experiment [3] (cells from relatively healthy participants) is given as “did not occur”. For the same compound, the “angiogenesis (tubule formation) in endothelial cells from adults, dermal source” value in experiment [4] is reported as “stimulated angiogenesis”.
